Results from ChEMBL document CHEMBL4673292, “Design, synthesis and anticancer activity of 2-amidomethoxy-1,4-naphthoquinones and its conjugates with Biotin/polyamine” (Bioorg Med Chem Lett, 2021).

What was measured:
COLO 205 = test: Antiproliferative activity against human COLO205 cells; assay type: functional, cell-based
K562 = test: Antiproliferative activity against human K562 cells; assay type: functional, cell-based
T47D = test: Antiproliferative activity against human T47D cells; assay type: functional, cell-based
[1] = Selectivity index, ratio of IC50 for human CCD-18Co cells to IC50 for human T47D cells
[2] = Selectivity index, ratio of IC50 for human CCD-18Co cells to IC50 for human K562 cells
[3] = Selectivity index, ratio of IC50 for human CCD-18Co cells to IC50 for human COLO 205 cells
CCD-18Co = test: Cytotoxicity against human CCD-18Co cells; assay type: cell-based

Row | Structure (SMILES) | IC50 (COLO 205) | IC50 (K562) | IC50 (T47D) | Ratio IC50 [1] | Ratio IC50 [2] | Ratio IC50 [3] | IC50 (CCD-18Co)
1 | O=C1NC2CSC(CCCCC(=O)N3CCN(C(=O)COC4=CC(=O)c5ccccc5C4=O)CC3)C2N1 (centres undefined) | 2300 nM | 1500 nM | 1200 nM | – | – | – | –
2 | CC(C)(C)OC(=O)NCC(CCCCNC(=O)COC1=CC(=O)c2c(O)cccc2C1=O)NC(=O)OC(C)(C)C (centres undefined) | 1600 nM | 1100 nM | 1100 nM | – | – | – | –
3 | O=C(CCCCC1SCC2NC(=O)NC21)NCCCCCCNC(=O)COC1=CC(=O)c2c(O)cccc2C1=O (centres undefined) | 1400 nM | 1100 nM | 500 nM | >10 | >10 | >10 | 9200 nM
4 | O=C(O)C(F)(F)F.O=C1C(OCC(=O)N2CCNCC2)=CC(=O)c2c(O)cccc21 | 800 nM | 500 nM | 600 nM | >10 | >10 | >10 | 8900 nM
5 | O=C(CCCCC1SCC2NC(=O)NC21)NCCNC(=O)COC1=CC(=O)c2c(O)cccc2C1=O (centres undefined) | > 10000 nM | – | > 10000 nM | – | – | – | –
6 | NCCCC(=O)NCCCCNC(=O)COC1=CC(=O)c2c(O)cccc2C1=O.O=C(O)C(F)(F)F.O=C(O)C(F)(F)F | 1200 nM | 1700 nM | 1700 nM | >10 | >10 | >10 | 8300 nM
7 | CC(C)(C)OC(=O)N1CCN(C(=O)COC2=CC(=O)c3c(O)cccc3C2=O)CC1 | 2300 nM | 1200 nM | 800 nM | – | – | – | –
8 | CC(C)(C)OC(=O)NCCCCCCNC(=O)COC1=CC(=O)c2ccccc2C1=O | > 10000 nM | 6700 nM | > 10000 nM | – | – | – | –
9 | O=C(CCCCC1SCC2NC(=O)NC21)NCCCCCCNC(=O)COC1=CC(=O)c2ccccc2C1=O (centres undefined) | > 10000 nM | > 10000 nM | 1800 nM | – | – | – | –
10 | CC(C)(C)OC(=O)NCC(CCCCNC(=O)COC1=CC(=O)c2c(O)cccc2C1=O)CNC(=O)CCCCC1SCC2NC(=O)NC21 (racemic) | – | > 10000 nM | 7900 nM | – | – | – | –

The next lines start with results.

Row | IC50 (COLO 205) | IC50 (K562) | IC50 (T47D) | Structure (SMILES) | Ratio IC50 [1] | Ratio IC50 [2] | Ratio IC50 [3] | IC50 (CCD-18Co)
11 | 5300 nM | 5100 nM | 6100 nM | NCC(CN)CCCCNC(=O)COC1=CC(=O)c2c(O)cccc2C1=O | – | – | – | –
12 | 4400 nM | 4900 nM | 3600 nM | COC(=O)CCCCCNC(=O)COC1=CC(=O)c2c(O)cccc2C1=O | – | – | – | –
13 | 2800 nM | 3300 nM | 3300 nM | O=C(COC1=CC(=O)c2c(O)cccc2C1=O)NCCCCCCO | – | – | – | –
14 | 4700 nM | 4100 nM | 2800 nM | NCCNC(=O)COC1=CC(=O)c2c(O)cccc2C1=O | – | – | – | –
15 | > 10000 nM | > 10000 nM | 6500 nM | NCCCCCCNC(=O)COC1=CC(=O)c2ccccc2C1=O | – | – | – | –
16 | 1300 nM | 1000 nM | 300 nM | CC(C)(C)OC(=O)NCCCCCCNC(=O)COC1=CC(=O)c2c(O)cccc2C1=O | >10 | >10 | >10 | 7300 nM
17 | 2400 nM | 2300 nM | 1200 nM | CC(=O)NCCCCCCNC(=O)COC1=CC(=O)c2c(O)cccc2C1=O | – | – | – | –
18 | 7300 nM | > 10000 nM | 9600 nM | NCCCCC(CN)CNC(=O)COC1=CC(=O)c2c(O)cccc2C1=O (centres undefined) | – | – | – | –
19 | 800 nM | 800 nM | 600 nM | NCCCCCCNC(=O)COC1=CC(=O)c2c(O)cccc2C1=O.O=C(O)C(F)(F)F | >10 | >10 | >10 | 8600 nM
20 | > 10000 nM | 5700 nM | 4600 nM | CCCCCCCNC(=O)COC1=CC(=O)c2c(O)cccc2C1=O | – | – | – | –
21 | 3100 nM | 1300 nM | 1400 nM | CC(C)(C)OC(=O)NCCCCC(CNC(=O)COC1=CC(=O)c2c(O)cccc2C1=O)NC(=O)OC(C)(C)C (centres undefined) | – | – | – | –
22 | 1400 nM | 1100 nM | 100 nM | CC(C)(C)OC(=O)NCCNC(=O)COC1=CC(=O)c2c(O)cccc2C1=O | – | – | – | –
